Source: patent US12691199B2, “Mussel-inspired photoreactive instant glue for environmental and biomedical applications” (KING ABDULLAH UNIVERSITY OF SCIENCE AND TECHNOLOGY, priority 2022, dated 2026)

Assay: Photocuring / inverted vial test of aqueous adhesive solution
Format: physicochemical
Conditions: aqueous solution with LAP 50.9 mM, 395 nm light
Description: The minimum concentration of the monomer and the crosslinker that leads to a solid material after curing is 892.8 mM and 161.8 mM, respectively. The high hydrophilicity of both compounds allows the formation of a highly concentrated aqueous solution. After the photoinitiator (LAP) addition and the application of 395 nm wavelength light, radicals are formed, and a polymeric crosslinked network is created according to the reaction (FIG. 9). The solution solidifies after 10 sec of exposure to the UV light (FIGS. 10A-B). FIG. 10A has a vial (892.8 mM KDOPA-MA and 161.8 mM (KDOPA)2-DMA) and FIG. 10B (297.6 mM KDOPA-MA and 53.9 mM (KDOPA)2-DMA). In both cases, the LAP concentration was constant (50.9 mM) and the UV light was applied for 10 sec. When the concentration of the compounds decreases, the solution remains liquid and becomes cloudier after curing. […] FIG. 11A illustrates 15% crosslinker molar ratio. FIG. 11B illustrates 45% crosslinker molar ratio.
The adhesive was prepared using the formulation of Table 1. An aqueous solution of LAP photoinitiator (15 mg/ml), KDOPA-MA (350 mg/ml) and (KDOPA)2-DMA (145 mg/ml) was prepared by mixing and vortexing for 10 sec. Throughout the text this formulation mentioned KDopa glue. When KDOPA-MA was replaced with KY-MA (the (KDOPA)2-DMA crosslinker remains the same) disclosed embodiments have the KY glue. […]

Substance | minimum concentration that leads to a solid material after curing [mM]
Lys-DOPA dimethacrylate [(KDOPA)2-DMA] | 161.8
Lys-DOPA methacrylate [KDOPA-MA] | 892.8
